Data: ChEMBL document CHEMBL1240346, “AC220 is a uniquely potent and selective inhibitor of FLT3 for the treatment of acute myeloid leukemia (AML)” (Blood, 2009)
pIC50, pKd: −log10 of the molar value.

What was measured:
in vivo [1] = details: nu/nu, mouse, po, 10 mg/kg
Ephrin type-A receptor 7 = Ephrin type-A receptor 7 (Homo sapiens, UniProt Q15375)
Description: Binding affinity to EPHA7

MV4-11 = test: cells; details: Homo sapiens, MV4-11, 72 h
Description: Cytotoxicity against human MV4-11 cells after 72 hrs by cell titer-blue assay

in vitro [2] = details: human, A375 cells
Description: Toxicity against human A375 cells after 72 hrs by cell titer-blue assay

in vivo [3] = details: nu/nu, mouse, po, 10 mg/kg; remark: listed apart in the source
in vivo [4] = details: nu/nu, mouse, plasma, po, 10 mg/kg
[5] = target: T1, Poly [ADP-ribose] polymerase tankyrase-2 (Homo sapiens, UniProt Q9H2K2)
T1 sequence (Q9H2K2 whole entry): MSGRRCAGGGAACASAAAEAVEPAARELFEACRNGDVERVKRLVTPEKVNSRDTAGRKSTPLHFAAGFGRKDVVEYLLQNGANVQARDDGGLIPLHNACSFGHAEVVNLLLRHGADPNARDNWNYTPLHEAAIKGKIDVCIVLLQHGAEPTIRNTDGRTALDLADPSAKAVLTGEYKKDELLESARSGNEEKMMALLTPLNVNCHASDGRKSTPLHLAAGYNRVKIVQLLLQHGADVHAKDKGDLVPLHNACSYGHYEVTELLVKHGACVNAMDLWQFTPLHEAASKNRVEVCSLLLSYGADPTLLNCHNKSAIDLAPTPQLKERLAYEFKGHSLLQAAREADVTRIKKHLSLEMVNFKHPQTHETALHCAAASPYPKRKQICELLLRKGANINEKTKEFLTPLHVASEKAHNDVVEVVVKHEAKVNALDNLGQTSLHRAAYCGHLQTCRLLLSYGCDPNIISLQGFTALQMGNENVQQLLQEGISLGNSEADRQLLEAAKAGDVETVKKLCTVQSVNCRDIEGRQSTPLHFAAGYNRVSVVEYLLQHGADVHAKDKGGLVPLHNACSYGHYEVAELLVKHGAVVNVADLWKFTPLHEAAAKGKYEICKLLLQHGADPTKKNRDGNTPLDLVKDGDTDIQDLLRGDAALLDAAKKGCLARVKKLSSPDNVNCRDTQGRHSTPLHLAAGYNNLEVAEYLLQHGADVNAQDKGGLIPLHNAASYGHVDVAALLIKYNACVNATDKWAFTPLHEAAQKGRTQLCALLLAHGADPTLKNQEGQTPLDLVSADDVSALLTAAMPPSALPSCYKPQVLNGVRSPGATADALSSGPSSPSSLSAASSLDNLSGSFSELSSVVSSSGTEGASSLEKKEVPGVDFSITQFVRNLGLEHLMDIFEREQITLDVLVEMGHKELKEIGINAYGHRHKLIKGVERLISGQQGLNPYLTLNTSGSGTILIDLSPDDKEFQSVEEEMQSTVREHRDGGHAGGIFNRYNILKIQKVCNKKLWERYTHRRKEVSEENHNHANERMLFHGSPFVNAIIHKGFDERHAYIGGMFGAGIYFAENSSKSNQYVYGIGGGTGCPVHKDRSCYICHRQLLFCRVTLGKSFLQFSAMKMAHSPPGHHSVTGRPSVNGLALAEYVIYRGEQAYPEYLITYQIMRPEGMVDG

in vitro [6] = details: mouse, plasma
Description: Plasma protein binding in mouse

Chain of Ephrin type-A receptor 7 (Q15375 whole entry): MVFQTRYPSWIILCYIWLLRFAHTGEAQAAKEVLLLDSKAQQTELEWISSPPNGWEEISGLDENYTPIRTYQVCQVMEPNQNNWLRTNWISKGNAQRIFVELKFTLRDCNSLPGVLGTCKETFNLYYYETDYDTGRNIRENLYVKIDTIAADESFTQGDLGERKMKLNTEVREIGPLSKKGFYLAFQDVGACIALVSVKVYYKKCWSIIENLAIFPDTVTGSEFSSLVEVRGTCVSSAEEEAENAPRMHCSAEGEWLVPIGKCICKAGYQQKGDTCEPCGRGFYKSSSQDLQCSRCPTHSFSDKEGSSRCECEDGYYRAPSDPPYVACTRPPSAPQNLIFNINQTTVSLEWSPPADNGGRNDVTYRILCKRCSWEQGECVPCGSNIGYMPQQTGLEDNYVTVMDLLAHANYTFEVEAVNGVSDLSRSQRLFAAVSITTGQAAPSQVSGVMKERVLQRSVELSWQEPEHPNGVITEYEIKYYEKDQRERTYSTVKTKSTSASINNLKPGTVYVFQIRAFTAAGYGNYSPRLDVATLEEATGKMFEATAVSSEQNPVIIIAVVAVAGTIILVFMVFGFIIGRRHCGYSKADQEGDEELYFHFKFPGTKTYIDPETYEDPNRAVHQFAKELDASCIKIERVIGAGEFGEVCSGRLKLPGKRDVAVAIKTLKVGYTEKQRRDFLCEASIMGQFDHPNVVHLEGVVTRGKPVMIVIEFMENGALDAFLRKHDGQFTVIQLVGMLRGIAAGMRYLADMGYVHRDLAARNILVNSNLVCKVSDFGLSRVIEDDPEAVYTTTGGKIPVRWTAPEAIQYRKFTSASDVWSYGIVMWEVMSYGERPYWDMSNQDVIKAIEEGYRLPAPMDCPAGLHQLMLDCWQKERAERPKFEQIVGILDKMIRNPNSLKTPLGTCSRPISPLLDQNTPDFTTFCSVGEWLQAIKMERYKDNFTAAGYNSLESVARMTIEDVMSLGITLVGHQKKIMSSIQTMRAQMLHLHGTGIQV

Tmax (in vivo [1]) [min]	pKd (Ephrin type-A receptor 7)	pIC50 (MV4-11)	IC50 at 72 h (in vitro [2]) [nM]	Cmax (in vivo [3]) [nM]	AUC(0-t) at 24 h (in vivo [4]) [µM·h]	pKd [5]	fraction unbound (in vitro [6])	SMILES
40.2	< 5.00	7.19	530	2300	8.4			CO[C@@H]1[C@H](N(C)C(=O)c2ccccc2)C[C@H]2O[C@]1(C)n1c3ccccc3c3c4c(c5c6ccccc6n2c5c31)C(=O)N[C@H]4O [CGP-52421]
60		7.22	> 10000	81	0.28	< 5.00	0.02	COc1cc2c(N3CCN(C(=O)Nc4ccc(OC(C)C)cc4)CC3)ncnc2cc1OCCCN1CCCCC1 [TANDUTINIB]
